According to patent US6794516B2, “Synthesis of clasto-lactacystin β-lactone and analogs thereof” (Millennium Pharmaceuticals, Inc., priority 1997, dated 2004):
“Also recorded” adds a separate entry of the source.

Experiments:
[1] = test system: C2C12 cells; assay: Inhibition of intracellular protein degradation in C2C12 cells; format: cell-based, mouse; details: for IC50: Mus musculus, C2C12 cells, 35S-methionine labelled, TCA soluble radioactivity
Description: C2C12 cells (a mouse myoblast line) were labeled for 48 hrs with ^35S-methionine. The cells were then washed and preincubated for 2 hrs in the same media supplemented with 2 mM unlabelled methionine. The media was removed and replaced with a fresh aliquot of the preincubation media containing 50% serum, and a concentration of the compound to be tested. The media was then removed and made up to 10% TCA and centrifuged. The TCA soluble radioactivity was counted. Inhibition of proteolysis was calculated as the percent decrease in TCA soluble radioactivity.

[2] = Lactone hydrolysis to the dihydroxy acid; details: for half-life at 200 mM: HEPES/EDTA buffer, pH 7.8
Description: (§1) The half-lives (ti1/2) for hydrolysis of β-lactone analogs to the corresponding dihydroxy acids were measured at 37° C. at a concentration of 200 mM in 20 mM HEPES, 0.5 mM EDTA, pH 7.8. Absorbance was measured for at least five half-lives (approximately 1 hour) at 230 nm, the wavelength at which there is the greatest difference in extinction coefficients for the lactone and dihydroxy.

[3] = molecular target: T1, PA28-activated 20S proteasome (Homo sapiens, UniProt P28074); assay: Inactivation of the chymotrypsin-like activity of PA28-activated 20S proteasome (Suc-Leu-Leu-Val-Tyr-AMC); format: biochemical; details: for kinact/KI: rate of enzyme inactivation, chymotrypsin-like activity of PA28-activated 20S proteasome, 37° C., pH 8.0, read-out: Kobs/[I]
T1 construct: from tissue
Description: Purification of 20S proteasome and proteasome activator PA28 was performed as previously described (Dick et al., J. Biol. Chem. 271:7273 (1996)).
2 mL of assay buffer (20 mM HEPES, 0.5 mM EDTA, pH 8.0) and Suc-Leu-Leu-Val-Tyr-AMC in dimethyl sulfoxide were added to a 3 mL fluorescent cuvette, and the cuvette was placed in the jacketed cell holder of a Hitachi F-2000 fluorescence spectrophotometer. The temperature was maintained at 37° C. by a circulating water bath. 0.34 mg of PA28 were added and the reaction progress was monitored by the increase in fluorescence at 440 nm (λex=380 nm) that accompanies production of free AMC. […] After reaching a steady state of substrate hydrolysis, lactacystin was added to a final concentration of […], and the reaction was monitored for 1 h. The fluorescence (F) versus time (t) data were collected on a microcomputer using LAB CALC (Galactic) software. kinact values were estimated by a nonlinear least-squares fit of the data to the first order equation:
where C=Ft=0 and A=Ft=∞−Ft=0.

[4] = test system: Male Sprague Dawley rats; assay: Middle cerebral artery (MCA) occlusion/reperfusion: infarct size and neurological score; format: in vivo, rat; details: for infarct volume: rat MCA occlusion
Description: Male Sprague Dawley rats (250-400 g) were anesthetized with haloethane and subjected to middle cerebral artery (MCA) occlusion using a nylon filament for 2 h. Subsequently, the filament was removed and reperfusion of the infarcted tissue occurred for 24 hours before the rat was sacrificed.
Immediately after the filament was withdrawn, the animals were evaluated using a neurological scoring system. Neurological scores were expressed on a scale from 0 to 10, with 0 representing no neurological deficit and 10 representing severe neurological deficit. After 24 hours and before sacrifice, animals were evaluated a second time using the same neurological scoring system.
Staining of coronal sections (2.0 mm×7-8) with triphenyltetrazolium chloride (TTC) taken throughout the brain were evaluated under blinded conditions using image analysis to determine infarct size.
Rats were given i.v. bolus injections (1.0 mL/kg) of either vehicle (50% propylene glycol/saline; n=8) or 7-n-propyl-clasto-lactacystin β-lactone (3b) (0.3 mg/kg; n=7) at 2 hours after the start of the occlusion. Two additional groups of rats were given i.v. bolus injections (1.0 mL/kg) of 3b at 0 minutes, 2 hours, and 6 hours after the start of the occlusion. One group (0.1 mg/kg×3; n=6) received 0.1 mg/kg at each of these times, while another group (0.3 mg/kg×3; n=7) received 0.3 mg/kg at each of the three timepoints.

[5] = physchem; details: buffer, pH 7.8
Description: as §1

SMILES | IC50 [1] [nM] | half-life at 200 mM [2] [min] | kinact/KI [3] [M⁻¹ s⁻¹] | also measured
CO[C@H]1C(=O)N[C@@]2([C@@H](O)C(C)C)C(=O)O[C@@H]12 [Compound 3f] | 86000 | 3.7 | 82200 | relative potency in cell culture ([1]; compared to 2): less potent than 2; also recorded: much weaker activity; relative hydrolysis rate ([2]; compared to 2): more rapidly hydrolyzed; relative potency in the enzyme assay ([3]; compared to the other compounds of Table 1 / to 2): most potent
CCC[C@H]1C(=O)N[C@@]2([C@@H](O)C(C)C)C(=O)O[C@@H]12 [Compound 3b, 7-n-propyl-clasto-lactacystin β-lactone] | 290 | 15.3 | 46500 | neurological score ([4]; i.v. 0.1 mg/kg×3 dosage group): No significant improvement; neurological score ([4]; i.v. 0.3 mg/kg×3 dosage group): No significant improvement; infarct volume decreased by ([4]; rat MCA occlusion 2 h, reperfusion 24 h, single i.v. dose 0.3 mg/kg at 2 hours after start of occlusion): 50%; infarct volume ([4]; i.v. 0.1 mg/kg×3 (0 minutes, 2 hours, 6 hours)): not significantly decreased; infarct volume ([4]; i.v. 0.3 mg/kg×3 (0 minutes, 2 hours, 6 hours)): not significantly decreased; mean neurological score at 24 hours ([4]; scale 0 to 10 (10 = severe deficit), single i.v. 0.3 mg/kg dose, vehicle 8.7±0.6): 4±1; neurological improvement ([4]; single i.v. 0.3 mg/kg dose, versus vehicle at 24 hours): 60%
CC[C@H]1C(=O)N[C@@]2([C@@H](O)C(C)C)C(=O)O[C@@H]12 [Compound 3a] | 320 | 15.3 | 39000 | –
CC(C)[C@H](O)[C@@]12NC(=O)[C@H](C)[C@@H]1OC2=O [Compound 2, clasto-lactacystin β-lactone] | 700 to 1100 | – | 20000 | half-life at 200 mM [5]: 13 min
CCCC[C@H]1C(=O)N[C@@]2([C@@H](O)C(C)C)C(=O)O[C@@H]12 [Compound 3c] | 330 | 17 | 38000 | –
CC(C)C[C@H]1C(=O)N[C@@]2([C@@H](O)C(C)C)C(=O)O[C@@H]12 [Compound 3d] | 510 | 16.8 | 17000 | –
